Assay results from patent publication US20020040139A1, “INTRANASAL FORMULATIONS FOR TREATING SEXUAL DISORDERS” (priority 1998, published 2002).
Where a name gives a salt, the structure may show the parent alone.

How the values were obtained:
[1] = Aqueous solubility of sildenafil mesylate; type: physicochemical; settings: no solubility enhancing agent
Method: Preferred as solubility enhancing agents are caffeine (preferably at a concentration of from 1.0 to 2.5% weight/vol); nicotinamide (preferably 3.0 to 20.0% weight/vol); vanillin (preferably 0.5 to 2.5% weight/vol); and benzyl alcohol (preferably 0.5 to 2.5% weight/vol). A combination of nicotinamide and vanillin is also preferred. By using such solubility enhancing agents, it is possible to increase the solubility of sildenafil mesylate in water from approximately 60 mg/ml to in excess of 100 mg/ml. This allows a more concentrated solution to be administered facilitating a rapid onset of action and reducing irritancy. One particular and preferred formulation comprises sildenafil mesylate 100 mg/ml and caffeine 15 mg/ml in a buffered aqueous solution. The pH of the solution is preferably adjusted to pH 3-5, preferably to pH 4.2 by the addition of a base e.g. sodium hydroxide.

[2] = Plasma levels in dogs after intranasal versus oral dosing; type: in vivo
Method: The effectiveness of the intranasal formulations of the present invention were evaluated in dogs. Four fasted dogs were lightly anaesthetised, each received 5 mg of the cGMP-PDE5 inhibitor in both nostrils. The drug was administered both as a powder and as a solution. Plasma levels of the active agent were measured and compared with plasma levels obtained when the dogs were previously orally dosed with the agent.
Thus a solution dose of 0.7 mg/kg of sildenafil mesylate administered by the intranasal route to four dogs gave a mean peak blood plasma levels of 407 ng/ml after a period of 5 minutes.

[3] = Plasma levels in human volunteers after intranasal administration; type: in vivo; settings: man
[4] = four dogs, intranasal route, solution dose 0.7 mg/kg

Molecule	solubility in water [1]	blood plasma levels after intranasal versus oral administration ([2]; dogs, intranasal powder and solution, 5 mg in both nostrils, compared with oral dosing)	mean peak blood plasma level [2, 4] [ng/mL]	time of mean peak blood plasma level [2, 4] [min]	blood plasma levels of sildenafil versus oral dosing [3]	time of peak blood plasma levels after administration [3] [min]	mean peak blood plasma level ([2]; dog, in vivo, po, 1.4 mg/kg) [ng/mL]	time of mean peak blood plasma level ([2]; dog, in vivo, po, 1.4 mg/kg) [min]
5-[2-ethoxy-5-(4-methylpiperazin-1-ylsulphonyl)phenyl]-1,6-dihydro-1-methyl-3-propylpyrazolo[4,3-d]pyrimidin-7-one)methanesulphonate salt [sildenafil mesylate]	approximately 60 mg/ml	particularly effective	407	5	comparable with oral dosing	5 to 15	–	–
CCCc1nn(C)c2c(=O)[nH]c(-c3cc(S(=O)(=O)N4CCN(C)CC4)ccc3OCC)nc12 [sildenafil citrate, reference compound]	–	–	–	–	–	–	204	136
